Experimental data: patent publication US8563571B2, “Crystalline forms of oxymorphone hydrochloride” (Noramco, Inc., priority 2010, dated 2013)

Experiments:
[1] = Dynamic vapor moisture sorption/desorption analysis; format: physicochemical; settings: for Moisture uptake by weight: between 75% and 95% RH, sorption; for hysteresis during the desorption cycle: desorption cycle (Form B: between 45% RH and 5% RH); for relative humidity above which hygroscopicity was exhibited: dynamic vapor sorption/desorption, 5% to 95% RH
Protocol: Dynamic vapor sorption/desorption data were collected on a VTI SGA-100 Vapor Sorption Analyzer. Sorption and desorption data were collected over a range of 5% to 95% relative humidity (RH) at 10% RH intervals under a nitrogen purge. Samples were not dried prior to analysis. Equilibrium criteria used for analysis were less than 0.0100% weight change in 5 minutes, with a maximum equilibration time of 3 hours if the weight criterion was not met. Data were not corrected for the initial moisture content of the samples. NaCl and PVP were used as calibration standards.
Dynamic vapor moisture sorption/desorption data was collected for representative samples for oxymorphone HCl Form A and Form B, as shown in FIG. 13 and FIG. 16, respectively.

[2] = Mechanical grinding studies (physical stability of crystalline form)
[3] = Physical stability at ambient temperature storage (re-analysis of crystalline form)
[4] = re-analyzed after approximately 12 months

With `CN1CC[C@]23c4c5ccc(O)c4O[C@H]2C(=O)CC[C@@]3(O)[C@H]1C5.Cl` [Form A, 4,5-epoxy-3,14-dihydroxy-17-methyl-(5α)-morphinan-6-one hydrochloride (1:1), reference compound] the “moisture retained at the end of the desorption cycle” value ([1]; at 5% RH, end of cycle) was 2.4%, the “Moisture uptake by weight” value [1] was “about 50%” and the “hysteresis during the desorption cycle” value [1] was “hysteresis was observed”. The “relative humidity above which hygroscopicity was exhibited” value [1] was “above 75%”.

With `CN1CC[C@]23c4c5ccc(O)c4O[C@H]2C(=O)CC[C@@]3(O)[C@H]1C5.Cl` [Form B, 4,5-epoxy-3,14-dihydroxy-17-methyl-(5α)-morphinan-6-one hydrochloride (1:1)] the “Moisture uptake by weight” value [1] was “about 43%”, the “hysteresis during the desorption cycle” value [1] was “no hysteresis was observed” and the “relative humidity above which hygroscopicity was exhibited” value [1] was “above 75%”. The “moisture content at the end of the cycle (in words)” value ([1]; end of desorption cycle) was “returned to the initial moisture content”, the “physical stability under mechanical grinding” value ([2]; in the presence of a small quantity of water) was “physically stable” and the “physical stability under mechanical grinding” value ([2]; mechanically ground in the absence of water) was “partially converted to Form A”.

For `CN1CC[C@]23c4c5ccc(O)c4O[C@H]2C(=O)CC[C@@]3(O)[C@H]1C5.Cl` [Form C, 4,5-epoxy-3,14-dihydroxy-17-methyl-(5α)-morphinan-6-one hydrochloride (1:1)], the “form found on re-analysis by pXRD after storage in ambient conditions” value ([3]; Example 8 sample, storage time not given) was “remain Form C” and the “stability at ambient temperature storage” value [3, 4] was “stable”.

With `CN1CC[C@]23c4c5ccc(O)c4O[C@H]2C(=O)CC[C@@]3(O)[C@H]1C5.Cl` [Form D, 4,5-epoxy-3,14-dihydroxy-17-methyl-(5α)-morphinan-6-one hydrochloride (1:1)] the “crystalline form(s) converted to on ambient temperature storage” value (shortened to “crystalline form(s) converted”) ([3]; after approximately 12 months) was “a mixture of Form A and Form B” and the “stability at ambient temperature storage” value [3, 4] was “unstable”.

In the case of `CN1CC[C@]23c4c5ccc(O)c4O[C@H]2C(=O)CC[C@@]3(O)[C@H]1C5.Cl` [Form F, 4,5-epoxy-3,14-dihydroxy-17-methyl-(5α)-morphinan-6-one hydrochloride (1:1)], the “crystalline form(s) converted” value ([3]; after approximately 10 months) is reported as “converting to Form A” and the “stability at ambient temperature storage” value ([3]; after approximately 10 months) is reported as “unstable”.

In the case of `CN1CC[C@]23c4c5ccc(O)c4O[C@H]2C(=O)CC[C@@]3(O)[C@H]1C5.Cl` [Form L, 4,5-epoxy-3,14-dihydroxy-17-methyl-(5α)-morphinan-6-one hydrochloride (1:1)], the “crystalline form(s) converted” value ([3]; after approximately 10 weeks) is reported as “a mixture of crystalline forms, one of which is Form A (a sesquihydrate) and the other is a monohydrate/hemi-ethanolate” and the “stability at ambient temperature storage” value ([3]; after approximately 10 weeks) is reported as “unstable”.
